Experimental data: patent US11452731B2, “Method of treating and preventing loss of cognition” (ENDORECHERCHE, INC., priority 2009, dated 2022)
Read-outs that look alike come from different tables or passages of the source.

Legend:
[1] = Uterine and vaginal weight in ovariectomized BALB/c mice treated orally for 9 days with or without estrone (Example 3); assay type: in vivo; conditions: for inhibition of estrone-stimulated uterine weight / inhibition of vaginal weight (estrone-stimulated): OVX mice + estrone, oral 9 days
Description: Female BALB/c mice (BALB/cAnNCrlBR) weighing 18-20 g were obtained from Charles-River, Inc. (St-Constant, Quebec, Canada) and housed 5 per cage in a temperature (23±1° C.)- and light (12 h light/day, lights on at 7:15)-controlled environment. The mice were fed rodent chow and tap water ad libitum. The animals were ovariectomized (OVX) under Isoflurane anesthesia via bilateral flank incisions and randomly assigned to groups of 10 animals. Ten mice were kept intact as controls.
In the second experiment (Table 6), TSE 424 was administered orally by gavage once daily at doses of 1, 3, 10 or 30 μg/animal for 9 days, starting 2 days after ovariectomy. In both experiments, to evaluate the antiestrogenic activity, treatment with estrone (E1, […], s.c. injection, twice daily) was started 5 days post-ovariectomy and was administered for a 6 day-period. Compounds were dissolved in ethanol (4% final concentration) and administered in 0.4% methylcellulose. Mice in the intact and OVX control groups received the vehicle alone (4% ETOH-0.4% methylcellulose) during the 9-day period. The animals were killed by exsanguination at the abdominal aorta on the 11th morning following ovariectomy. The uteri and vagina were rapidly dissected, weighed, and kept in 10% buffered formalin for further histologic examination.

[2] = tested on: MCF-7 human breast cancer cells; test: Proliferation (DNA content) of human breast cancer MCF-7 cells (Example 7); assay type: cell-based; conditions: for IC50: Homo sapiens, read-out: Inhibition of 1 nM E2 stimulation of DNA by tested compounds IC50
Text: MCF-7 human breast cancer cells were obtained from the American Type Culture Collection #HTB 22 at passage 147 and routinely grown in phenol red-free Dulbecco's Modified Eagle's-Ham's F12 medium, the supplements mentioned above and 5% FBS. The MCF-7 human breast adenocarcinoma cell line was derived from the pleural effusion of a patient. MCF-7 cells were used between passages 148 and 165 and subcultured weekly
Thereafter, medium was replaced with fresh medium containing the indicated concentrations of compounds diluted from 1000×stock solutions in 99% redistilled ethanol in the presence or absence of E2. Control cells received only the ethanolic vehicle (0.1% EtOH, v/v). Cells were incubated for the specified time intervals with medium changes at 2- or 3-day intervals. Cell number was determined by measurement of DNA content.
All results are expressed as means±SEM.

[3] = tested on: human Ishikawa cells; test: Alkaline phosphatase activity in human endometrial adenocarcinoma Ishikawa cells (Example 6)
[4] = 26-week treatment of ovariectomized rats: lumbar spine BMD, total body fat, serum cholesterol, ALP (Example 4, experiment 2); assay type: in vivo, rat; conditions: OVX rats, 26 weeks
Description: Ten to twelve week-old female Sprague-Dawley rats (Crl:CD(SD)Br) (Charles River Laboratory, St-Constant, Canada) weighing approximately 220-270 g at start of treatment were used. […] The animals were housed individually and were allowed free access to tap water and a pelleted certified rodent feed (Lab Diet 5002, Ralston Purina, St-Louis, Mo.). Experiments were conducted in an animal facility approved by the Canadian Council on Animal Care (CCAC) and the Association for Assessment and Accreditation of Laboratory Animal Care (AAALAC) in accordance with the CCAC Guide for Care and Use of Experimental Animals. […] Treatments were initiated on day 2 of the study and were performed once daily during 26 weeks. In both experiments, animals not receiving a test article were treated with the appropriate vehicle alone during the same period. […] QDR 4500A, Hologic, Waltham, Mass.) and a Regional High Resolution Scan software. […] Samples were processed for serum preparation and frozen at -80° C. until assay. Serum cholesterol levels and alkaline phospatase activity (ALP) were determined using the Boehringer Mannheim Diagnostic Hitachi 911 Analyzer (Boehringer Mannheim Diagnostic Laboratory Systems).

[5] = 5-week treatment of ovariectomized rats with SERMs alone or with DHEA: BMD of lumbar spine, femur, tibia (Example 5); assay type: in vivo, rat; conditions: OVX rats, 5 weeks
Description: Ten to twelve week-old female Sprague-Dawley rats (Crl:CD(SD)Br) (Charles River Laboratory, St-Constant, Canada) weighing approximately 220-270 g at start of treatment were used. The animals were acclimatized to the environmental conditions (temperature: 22±3° C.; humidity: 50±20%; 12-h light-12-h dark cycles, lights on at 07:15 h) for at least 1 week before starting the experiments. The animals were housed individually and were allowed free access to tap water and a pelleted certified rodent feed (Lab Diet 5002, Ralston Purina, St-Louis, Mo.). Experiments were conducted in an animal facility approved by the Canadian Council on Animal Care (CCAC) and the Association for Assessment and Accreditation of Laboratory Animal Care (AAALAC) in accordance with the CCAC Guide for Care and Use of Experimental Animals.
On day 1 of the study, the animals of the appropriate groups were bilaterally ovariectomized (Ovx) under isoflurane anesthesia. The DHEA was applied topically on the dorsal skin as a solution in 50% ethanol-50% propylene glycol while the tested SERMs were administered as suspension in 0.4% methylcellulose by oral gavage. Treatments were initiated on day 2 of the study and were performed once daily during 5 weeks.
After 5 weeks of treatment, individual rats under Isoflurane anesthesia had their lumbar spine, femur and tibia scanned using dual energy x-ray absorptiometry (DEXA; QDR 4500A, Hologic, Waltham, Mass.) and a Regional High Resolution Scan software. The bone mineral density (BMD) of the lumbar spine (vertebrae L2 to L4), distal femoral metaphysis (DFM) and proximal tibial metaphysis (PTM) were determined.

[6] = OVX mice, absence of estrone, 10 μg daily (no-effect statements: 1 μg and 10 μg)
[7] = Premarin 0.25 mg/kg, SERMs 2.5 mg/kg

## Oc1ccc2c(c1)CC[C@H](c1ccccc1)[C@@H]2c1ccc(OCCN2CCCC2)cc1 [Lasofoxifene (free base)]
[1]; 1 μg daily
  inhibition of estrone-stimulated uterine weight: no inhibitory effect
[1]; 3 μg daily
  inhibition of estrone-stimulated uterine weight: 25%
[1]; 10 μg daily
  inhibition of estrone-stimulated uterine weight: 44%
  inhibition of vaginal weight (estrone-stimulated): 37%
[1]; [6]
  stimulation of uterine weight (estrogenic effect): 93%
  stimulation of vaginal weight (estrogenic effect): 73%
[2]; MCF7, MCF-7, Experiment 2
  IC50: 0.379 nM
[2]; MCF-7, Experiment 2
  Stimulation of DNA by tested compounds % of 1 nM E2 stimulation: N.S.
[3]; Homo sapiens, Ishikawa, 120 h, read-out: Inhibition of 1 nM E2-induced stimulation of alkaline phosphatase IC50
  IC50: 4.24 nM
[3]; Homo sapiens, Ishikawa, 120 h, read-out: Maximal stimulation of alkaline phosphatase % of 1 nM E2 stimulation
  Emax: 17.9%
[3]; Ishikawa cells, 5-day incubation, 1 nM E2
  Maximal inhibition of 1 nM E2-induced stimulation of alkaline phosphatase: 85.14 (1)

## Cc1c(-c2ccc(O)cc2)n(Cc2ccc(OCCN3CCCCCC3)cc2)c2ccc(O)cc12 [TSE 424, 1-[[4-[2-(hexahydro-1H-azepin-1-yl)ethoxy]phenyl]methyl]-2-(4-hydroxyphenyl)-3-methyl-1H-indol-5-ol, acetate]
[1]; OVX + E1, 1 μg
  UTERINE WEIGHT: 105.5 ± 6.1 mg
  VAGINAL WEIGHT: 54.2 ± 3.0 mg
[1]; OVX + E1, 3 μg
  UTERINE WEIGHT: 69.7 ± 4.4 mg
  VAGINAL WEIGHT: 47.2 ± 1.6 mg
[1]; OVX + E1, 10 μg
  UTERINE WEIGHT: 42.1 ± 2.7 mg
  VAGINAL WEIGHT: 31.1 ± 2.3 mg
[1]; OVX + E1, 30 μg
  UTERINE WEIGHT: 21.7 ± 1.7 mg
  VAGINAL WEIGHT: 16.7 ± 1.8 mg
[1]; 1 μg daily
  inhibition of estrone-stimulated uterine weight: 12%
[1]; 3 μg daily
  inhibition of estrone-stimulated uterine weight: 47%
  inhibition of vaginal weight (estrone-stimulated): 16%
[1]; 10 μg daily
  inhibition of estrone-stimulated uterine weight: 74%
  inhibition of vaginal weight (estrone-stimulated): 56%
[1]; 30 μg daily
  inhibition of estrone-stimulated uterine weight: 94%
  inhibition of vaginal weight (estrone-stimulated): 93%
[1]; OVX without E1, 3 μg
  UTERINE WEIGHT: 18.3 ± 1.2 mg
  VAGINAL WEIGHT: 14.1 ± 1.2 mg
[1]; OVX without E1, 30 μg
  UTERINE WEIGHT: 17.7 ± 1.6 mg
  VAGINAL WEIGHT: 15.3 ± 2.0 mg
[4]
  ALP: 85 ± 6 IU
  CHOLESTEROL (serum): 1.15 ± 0.05 mmol/L
  TOTAL FAT: 28.0 ± 1.8 %
  reversal of the fat increase induced by estrogen deficiency: 75%
[4]; [7]
  LUMBAR SPINE BMD: 0.2252 ± 0.0058 g/cm^2
  LUMBAR SPINE Prevention of Bone Loss: 49%
[5]
  DISTAL FEMORAL METAPHYSIS (DFM) BMD: 0.2929 ± 0.0042 g/cm^2
  DISTAL FEMORAL METAPHYSIS (DFM) Prevention of Bone Loss: 70%
  PROXIMAL TIBIAL METAPHYSIS (PFM) BMD: 0.2750 ± 0.0039 g/cm^2
  PROXIMAL TIBIAL METAPHYSIS (PFM) Prevention of Bone Loss: 71%
[5]; SERMs 2.5 mg/kg, DHEA 80 mg/kg
  LUMBAR SPINE (L2-L4) BMD: 0.2162 ± 0.0035 g/cm^2
  LUMBAR SPINE (L2-L4) Prevention of Bone Loss: 53%
[2]; MCF7, MCF-7, Experiment 1
  IC50: 3.68 nM
